According to US6362166B1, “Antipicornaviral compounds and methods for their use and preparation” (Agouron Pharmaceuticals, Inc., priority 1996, dated 2002):
Where two headings read alike, the source gives them in different places.

Experiments:
[1] = molecular target: T1, Recombinant Rhinovirus 3C protease (RVP) serotype-14 (Human rhinovirus 14, UniProt P03303); assay: Inhibition of Rhinovirus Protease (fluorescence resonance energy transfer assay), serotype 14; assay type: biochemical, human rhinovirus (HRV); conditions: RVP serotype-14; for INHIB (percent inhibition): 10 minute preincubation with 50 nM RVP; for kobs/I: progress curves in enzyme start experiments; for Ki: 10 minute preincubation, substrate start, read-out: INHIB (Ki)
T1 construct: Recombinant Rhinovirus 3C proteases from serotypes 14, 16, 2 or 89; made in house
Description: Stock solution (50 mM, in DMSO) of various compounds were prepared; dilutions were in the same solvent. […] Assays contained 2% DMSO, 50 mM tris pH 7.6, 1 mM EDTA, a compound at the indicated concentrations, approximately 1 μM substrate, and 50-100 nM protease. […] The kobs/I values were obtained from reactions initiated by addition of enzyme rather than substrate. RVP activity is measured in the fluorescence resonance energy transfer assay. […] In the uncleaved peptide, the EDANS fluorescence was quenched by the proximal DABCYL moeity. When the peptide was cleaved, the quenching was relieved, and activity was measured as an increase in fluorescence signal.
In the above table, all data is RVP serotype-14 unless otherwise noted in parentheses. All strains of human rhinovirus (HRV) were purchased from American Type Culture Collection (ATCC), except for serotype 14, which was produced from the infectious cDNA clone constructed and supplied to us by Dr. Roland Rueckert at the Institute for Molecular Virology, University of Wisconsin, Madison, Wisc. […] The data in the column designated kobs/I was measured from progress curves in enzyme start experiments.

HRV-14 = assay: Antirhinoviral HI-HeLa Cell Culture Assay (Cell Protection Assay, XTT dye reduction); assay type: cell-based, human rhinovirus (HRV) serotype-14; conditions: HI-HeLa cells infected with HRV-14, m.o.i. 0.13; two days; XTT; read-out: EC50
Description: In the Cell Protection Assay, the ability of compounds to protect cells against HRV infection was measured by the XTT dye reduction method. This method is described in Weislow, O. S., R. Kiser, D. L. Fine, J. Bader, R. H. Shoemaker, and M. R. Boyd, J. Natl. Cancer Inst. 1989, 81, 577-586, which is incorporated herein by reference.
(§1) HI-HeLa cells were infected with HRV-14 at a multiplicity of infection (m.o.i.) of 0.13 (virus particles/cell) or mock-infected with medium only. Infected or mock-infected cells were resuspended at 8×10^5 cells per mL and incubated with appropriate concentration of compounds of formulas I and II. Two days later, XTT/PMS was added to test plates and the amount of formazan produced was quantified spectrophotometrically at 450/650 nm. […] The therapeutic index (TI) was calculated by dividing the CC50 by the EC50.
(§2) All strains of human rhinovirus (HRV) for use in this assay were purchased from American Type Culture Collection (ATCC), except for HRV serotype-14, which was produced from the infectious cDNA clone, constructed and supplied to us by Dr. Roland Rueckert at the Institue for Molecular Virology, University of Wisconsin, Madison, Wisc. HRV stocks were propagated, and antiviral assays were perforemd in HI-HeLa cells (ATCC). Cells were grwon in Minimal Essential Medium, available from Life Technologies, with 10% fetal bovine serum.
The compounds were tested against control compounds WIN 51711, WIN 52084, and WIN 54954, all obtained from Sterling-Winthrop Pharmaceuticals, and control compound Pirodavir, obtained from Janssen Pharmaceuticals.

HI-HeLa cells = assay: Cytotoxicity in mock-infected HI-HeLa cells (antirhinoviral assay, XTT); assay type: cell-based
Description: as §1, §2

[2] = mock-infected HI-HeLa cells, two days, XTT, read-out: CC50

T1 sequence (P03303 1538-1719): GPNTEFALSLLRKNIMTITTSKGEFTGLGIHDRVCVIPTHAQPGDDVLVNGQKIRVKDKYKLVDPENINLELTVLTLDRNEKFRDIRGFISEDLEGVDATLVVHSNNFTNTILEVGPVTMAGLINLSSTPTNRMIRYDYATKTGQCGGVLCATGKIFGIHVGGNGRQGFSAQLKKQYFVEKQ

| Compound | kobs/I [1] | EC50 (HRV-14) [µM] | CC50 (HI-HeLa cells) [µM] | also measured |
| --- | --- | --- | --- | --- |
| CC(C)C[C@H](NC(=O)OCc1ccccc1)C(=O)N[C@@H](Cc1ccccc1)C(=O)N[C@H](/C=C/S(C)(=O)=O)CCC(N)=O [Compound 9, Methyl-[2-(CBZ-L-Leu-L-Phe-L-Gln)-E-Vinyl]Sulfone] | 160 M⁻¹ s⁻¹ | > 320 | > 320 | INHIB (percent inhibition) ([1]; 1 μM compound): 20(1) percent |
| CC(C)C[C@H](NC(=O)OCc1ccccc1)C(=O)N[C@@H](Cc1ccccc1)C(=O)N[C@H](/C=C/S(=O)(=O)c1ccccc1)CCC(N)=O [Compound 10, Phenyl-[2-(CBZ-L-Leu-L-Phe-L-Gln)-E-Vinyl]Sulfone] | 270 M⁻¹ s⁻¹ | 200 | > 320 | INHIB (percent inhibition) ([1]; 5 μM compound): 55(5) percent |
| CC(C)C[C@H](NC(=O)OCc1ccccc1)C(=O)N[C@@H](Cc1ccccc1)C(=O)N[C@H](/C=C/C(=O)O)CCC(N)=O [Compound 15, 3-(CBZ-L-Leu-L-Phe-L-Gln)-E-Propenoic Acid] | 27 M⁻¹ s⁻¹ | > 100 | > 100 | INHIB (percent inhibition) [1]: 55(50) percent |
| CCOC(=O)/C=C/[C@H](CNC(N)=O)NC(=O)[C@H](Cc1ccccc1)NC(=O)[C@H](CC(C)C)NC(=O)OCc1ccccc1 [Compound 16, Ethyl-3-[CBZ-L-Leu-L-Phe-L-(N-carbamyl-amino)-Ala]-E-Propenoate] | 3,500 M-1 sec-1 | 32 | > 100 | INHIB (percent inhibition) ([1]; […] compound): 40(0.25) percent |
| CC(C)C[C@H](NC(=O)OCc1ccccc1)C(=O)N[C@@H](Cc1ccccc1)C(=O)N[C@H](/C=C/C(=O)OC1CCCC1)CCC(N)=O [Compound 18, Cyclopentyl-3-(CBZ-L-Leu-L-Phe-L-Gln)-E-Propenoate] | 7,700 M-1 sec-1 | 0.64 | > 100 | Ki [1]: 15.3 µM |
| CC(C)C[C@H](NC(=O)OCc1ccccc1)C(=O)N[C@@H](Cc1ccccc1)C(=O)N[C@H](/C=C/C(=O)OCC1CCCC1)CCC(N)=O [Compound 19, Cyclopentylmethyl-3-(CBZ-L-Leu-L-Phe-L-Gln)-E-Propenoate] | 7,900 M-1 sec-1 | 1.35 | > 100 | Ki [1]: 35 µM |
| CCOC(=O)/C=C/[C@H](CCC(N)=O)NC(=O)[C@H](Cc1ccc(Cl)cc1)NC(=O)c1cc2c(OC)cccc2[nH]1 [Compound 26, Ethyl-3-[N-(4-Methoxyindole-2-Carbonyl)-L-(4-Cl-Phe)-L-Gln]-E-Propenoate] | 5,400 M-1 sec-1 | 2 | 44.7 | INHIB (percent inhibition) ([1]; 0.1 μM compound): 52(0.1) percent |
| CCOC(=O)/C=C/[C@H](CCC(N)=O)NC(=O)[C@H](Cc1cccc(F)c1)NC(=O)c1cc2c(OC)cccc2[nH]1 [Compound 28, Ethyl-3-[N-(4-Methoxyindole-2-Carbonyl)-L-(3-F-Phe)-L-Gln]-E-Propenoate] | 4,000 M-1 sec-1 | 4.5 | 63.1 | Ki [1]: 57 µM |
| CCOC(=O)/C=C/[C@H](CCC(N)=O)NC(=O)[C@H](Cc1ccccc1)NC(=O)OCc1ccccc1 [Compound 30, Ethyl-3-(CBZ-L-Phe-L-Gln)-E-Propenoate] | 430 M⁻¹ s⁻¹ | 5.6 | 100 | Ki [1]: 373 µM |
| CCCS(=O)(=O)N[C@@H](Cc1ccccc1)C(=O)N[C@H](/C=C/C(=O)OCC)CCC(N)=O [Compound 31, Ethyl-3-[N-(Propylsulfonyl)-L-Phe-L-Gln]-E-Propenoate] | 21 M⁻¹ s⁻¹ | 50.1 | > 100 | INHIB (percent inhibition) ([1]; 10 μM compound): 25(10) percent |
| CCOC(=O)/C=C/[C@H](CCC(N)=O)NC(=O)[C@H](Cc1ccccc1)NS(=O)(=O)Cc1ccccc1 [Compound 32, Ethyl-3-[N-(Benzylsulfonyl)-L-Phe-L-Gln]-E-Propenoate] | 280 M⁻¹ s⁻¹ | 10 | > 100 | – |
| CCOC(=O)/C=C/[C@H](CCC(N)=O)NC(=O)[C@H](Cc1ccccc1)NS(=O)(=O)c1ccccc1 [Compound 34, Ethyl-3-[N-(Phenylsulfonyl)-L-Phe-L-Gln]-E-Propenoate] | 34 M⁻¹ s⁻¹ | 100 | – | INHIB (percent inhibition) ([1]; 10 μM compound): 10(10) percent; CC50 (HI-HeLa cells; [2]): > 100 µM |
| CC(C)CC(NC(=O)OCc1ccccc1)C(=O)NC(Cc1ccccc1)C(=O)NC(C=CC(=O)N1CCC(O)C1)CCC(N)=O (stereo not shown) [Compound 39] | 1,200 M-1 sec-1 | > 320 | > 320 | – |
| COc1ccc(C(=O)/C=C/[C@H](CCC(N)=O)NC(=O)[C@H](Cc2ccccc2)NC(=O)[C@H](CC(C)C)NC(=O)OCc2ccccc2)cc1 [Compound 42] | 150,000 M-1 sec-1 | 22.4 | 100 | – |
| CCN(CC)c1ccc(C(=O)/C=C/[C@H](CCC(N)=O)NC(=O)[C@H](Cc2ccccc2)NC(=O)[C@H](CC(C)C)NC(=O)OCc2ccccc2)cc1 [Compound 43] | 4,500 M-1 sec-1 | 10 | 18 | – |
| CC(C)C[C@H](NC(=O)OCc1ccccc1)C(=O)N[C@@H](Cc1ccccc1)C(=O)N[C@H](/C=C/C(=O)c1ccc2c(c1)OCO2)CCC(N)=O [Compound 46] | 120,000 M-1 sec-1 | 3.2 | 45 | – |
| CC(C)C[C@H](NC(=O)OCc1ccccc1)C(=O)N[C@@H](Cc1ccccc1)C(=O)N[C@H](/C=C/C(=O)c1ccco1)CCC(N)=O [Compound 49] | 460,000 M-1 sec-1 | 2.4 | 19.1 | – |
| CC(C)C[C@H](NC(=O)OCc1ccccc1)C(=O)N[C@@H](Cc1ccccc1)C(=O)N[C@H](/C=C/C(=O)C(C)(C)C)CCC(N)=O [Compound 52] | 15,000 M-1 sec-1 | 1.7 | 5.6 | – |
| CCOC(=O)/C=C/[C@H](CCC(N)=O)NC(=O)[C@H](Cc1ccc(O)cc1)NC(=O)[C@H](CC(C)C)NC(=O)OCc1ccccc1 [Compound 53] | 11,320 M-1 sec-1 | 5.3 | > 320 | – |
| CC(C)C[C@H](NC(=O)OCc1ccccc1)C(=O)N[C@@H](Cc1ccccc1)C(=O)N[C@H](/C=C/C(=O)Nc1ccccc1)CCC(N)=O [Compound 59] | 200 M⁻¹ s⁻¹ | > 320 | – | Ki [1]: 2 µM; CC50 (HI-HeLa cells; [2]): > 320 µM |
| CC(C)C[C@H](NC(=O)OCc1ccccc1)C(=O)N[C@@H](Cc1ccccc1)C(=O)N[C@H](/C=C/C(=O)N(C)c1ccccc1)CCC(N)=O [Compound 60] | 575 M⁻¹ s⁻¹ | 158 | > 320 | Ki [1]: 5 µM |
| CC(C)C[C@H](NC(=O)OCc1ccccc1)C(=O)N[C@@H](Cc1ccccc1)C(=O)N[C@H](/C=C/C(=O)n1cccc1)CCC(N)=O [Compound 66] | 400,000 M-1 sec-1 | 1.4 | 6.3 | – |
| CCOC(=O)/C=C/[C@H](CCC(N)=O)NC(=O)[C@H](Cc1ccccc1)NC(=O)[C@H](CC(C)C)NC(=O)c1ccccc1 [Compound 67] | 9,600 M-1 sec-1 | 5.2 | > 320 | – |
| CCOC(=O)C=CC(CCC(N)=O)NC(=O)C(Cc1ccccc1)NC(=O)C(NC(=O)OCc1ccccc1)c1ccccc1 (stereo not shown) [Compound 71] | 20,650 M-1 sec-1 | 14.1 | > 320 | – |
| CC(C)C[C@H](NC(=O)OCc1ccccc1)C(=O)N[C@@H](Cc1ccccc1)C(=O)N[C@H](/C=C/C(=O)N1CCCO1)CCC(N)=O [Compound 79] | 13,900 M-1 sec-1 | 45 | – | CC50 (HI-HeLa cells; [2]): > 320 µM |
| CC(C)C[C@H](NC(=O)OCc1ccccc1)C(=O)N[C@@H](Cc1ccccc1)C(=O)N[C@H](/C=C/C(=O)c1ccc(C#N)cc1)CCC(N)=O [Compound 80] | 200,000 M-1 sec-1 | 50 | – | CC50 (HI-HeLa cells; [2]): > 320 µM |
